Experimental data as given in patent US20130045947A1, “PLA2ACTIVITY AS A MARKER FOR OVARIAN AND OTHER GYNECOLOGIC CANCERS” (INDIANA UNIVERSITY RESEARCH AND TECHNOLOGY CORPORATION, priority 2010, published 2013).
“Also recorded” adds a separate entry of the source.

Experiments:
PLA2 [1] = assay type: biochemical, human
PLA2 [2] = assay type: biochemical, mouse
tumors = assay: Tumors from control and BEL-treated mice; assay type: in vivo, mouse
Excerpt: Referring now to FIGS. 3A, C and D, PLA2 activities measured from several mouse models for GYN diseases are presented.

EOC metastasis = conditions: with low and non-toxic doses of paclitaxel; shown previously; cited from earlier work
SKOV3 cells [3] = assay: Cell migration assay, SKOV3 cells; assay type: cell-based, human; conditions: for effect on migration of SKOV3 cells induced by S1 fractions: inhibitor in lower chamber, two different S1 fractions, FIG. 10A; for stimulation of migration: SKOV3 cells, FIG. 10D
Description: In order to determine whether PLA2 and ATX were functionally involved in ascites-induced migration of EOC cells, the inhibitors MAFP, BEL, and HA130 were added to the lower chambers during the assay. […] The effect of each inhibitor was almost identical whether using S1, S3, or S4 fractions (FIG. 10 and data not shown).

PLA2 [4] = assay type: biochemical, human; conditions: for sensitivity of exosome-associated PLA2 activity to inhibitor: exosomes isolated from human ascites (ExoQuick); for inhibition of ascitic PLA2 activity: cell-free human EOC ascites
EOC cells [5] = assay: Ascites-stimulated proliferation, migration and invasion of EOC cells; conditions: S1 and S3 specimens
[6] = tested on: RAW 264.7 mouse macrophages; assay: PLA2 activity in conditioned medium (CM) of macrophages; assay type: cell-based; conditions: for effect on PLA2 activity detected in CM: exosome secretion inhibitors, DMA 5 and 12.5 nM, MBC 1 and 2 mM; for order of effectiveness in reducing PLA2 activity of CM: ABC transporter inhibitors; for effect on PLA2 activity of CM: cells treated 4 hr, 17-hr CM, MK571 10-50 μM, CsA 2-50 μM, glyburide 0.1-2 mM, FIG. 12B
SKOV3 cells [7] = assay: MTT proliferation assay, ascites-stimulated SKOV3 cells; assay type: cell-based, human; conditions: S1-stimulated; 10 μM Ki16425
SKOV3 cells [8] = assay: Migration of SKOV3 cells to RAW 264.7 macrophage CM; assay type: cell-based, human; conditions: MK571 50 μM, glyburide 500 μM; FIG. 12C
Description: Referring now to FIG. 12C, CM from RAW 264.7 mouse macrophages was tested to determine if it would stimulate migration of SKOV3 cells. Migration of SKOV3 cells to 17-hr CM from untreated cells and cells treated with inhibitors (MK571, 50 μM, CsA, 10 μM, glyburide, 500 μM, and MAFP, 20 μM). ***, P<0.001 compared to CM. Data is mean and SD of three membranes; experiment repeated twice. An approximately 2-fold increase in migration with the CM compared to the medium control in the bottom well of the migration chamber was found. […] The addition of MAFP to the CM also abrogated migration.

sPLA2 = sPLA2 (Apis mellifera, UniProt P00630); assay type: biochemical, bee
SKOV3 cells [9] = assay: Cell invasion assay; conditions: FIG. 10D
EOC cells [10] = conditions: has been shown (earlier work); cited from earlier work

Chain of sPLA2 (P00630 34-167 limits assumed): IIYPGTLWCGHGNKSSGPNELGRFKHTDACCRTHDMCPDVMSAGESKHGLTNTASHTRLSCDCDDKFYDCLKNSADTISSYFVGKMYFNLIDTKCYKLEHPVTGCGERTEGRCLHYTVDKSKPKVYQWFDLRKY

Which results are given for `O=C1O/C(=C/Br)CCC1c1cccc2ccccc12` (centres unmarked) [BEL, bromoenol lactone]?
sensitivity of para-nuclear (cancer) PLA2 activities to inhibitor (PLA2 [1]; frozen human GYN cancer tissue sections, DBPC, FIG. 1D): sensitive; sensitivity of PLA2 activities in normal mouse tissues (PLA2 [2]; kidney, lung, liver): insensitivity; effect on sPLA2-like activity of normal mouse kidney tissue (PLA2 [2]; mouse kidney, FIG. 3E): minimally affected; tumor size / tumorigenesis (tumors; BEL-treated vs control mice): reduces tumorigenesis; also recorded: significantly smaller; PLA2 activity in tumors of treated mice (tumors; tumors from BEL-treated vs control mice, FIG. 3B): greatly reduced; inhibition of EOC metastasis in combination (EOC metastasis): can inhibit EOC metastasis; effect on migration of SKOV3 cells induced by S1 fractions (SKOV3 cells [3]): dose-dependently reduced; sensitivity of exosome-associated PLA2 activity to inhibitor (PLA2 [4]): proved sensitive; inhibition of ascites-stimulated proliferation, migration and invasion (EOC cells [5]): 20-40%

With `CN(C)c1nc(N)c(C(=O)N=C(N)N)nc1Cl.Cl` [DMA, 5,5-(N—N-Dimethyl)-amiloride hydrochloride] as the compound, how does the “effect on PLA2 activity detected in CM” value [6] read?
Its value is “Neither inhibitor had any significant effect”.

With `O[C@@H](CS)[C@@H](O)CS` [DTT] as the compound, how does the “inhibition of ascitic PLA2 activity” value (PLA2 [4]) read?
The value was “did not inhibit”.

Which “effect on migration of SKOV3 cells induced by S1 fractions” value (SKOV3 cells [3]) does the source give for `O=C1S/C(=C\c2ccc(OCc3cccc(B(O)O)c3)cc2)C(=O)N1Cc1ccc(F)cc1` [HA130] here?
The value was “dose-dependently reduced”.

What about the “inhibition of ascites-stimulated proliferation, migration and invasion” value (EOC cells [5]) of the same compound?
Its value is 10-45%.

Which “proliferation of SKOV3 cells reduced by” value (SKOV3 cells [7]) does the source give for `Cc1noc(-c2ccc(CSCCC(=O)O)cc2)c1NC(=O)OC(C)c1ccccc1Cl` (centres unmarked) [Ki16425] here?
Its value is 12.4±7.44%.

And the “inhibition of migratory activity induced by S1, S3 and P3 fractions” value (SKOV3 cells [3]; SKOV3 cells pretreated with Ki16425 (10 μM), FIG. 10B)?
Its value is greater than 70%.

Which results are given for `CN(C)C(=O)CCSC(SCCC(=O)O)c1cccc(/C=C/c2ccc3ccc(Cl)cc3n2)c1` (centres unmarked) [MK571]?
migration of SKOV3 cells to CM from inhibitor-treated macrophages (SKOV3 cells [8]): did not stimulate migration; order of effectiveness in reducing PLA2 activity of CM [6]: MK571>glyburide>CsA; effect on PLA2 activity of CM [6]: dose-responsively reduced

With `CCCCCCCCCCCCCCCCSC[C@H](COP(=O)(O)OCC[N+](C)(C)C)NC(=O)CCCCCCCCCCCCCCC` [TAPC, thioether amide-PC] as the compound, how does the “blocking of sPLA2 activity of positive control” value (sPLA2) read?
Its value is “blocking sPLA2 activity”.

What about the “sensitivity of tumor PLA2 activity to inhibitor” value (PLA2 [1]; frozen tumor sections, MAFP 40 μM, TAPC 250 μM, FIG. 7B) of the same compound?
Its value is “but not to an inhibitor of sPLA2”.

And the “inhibition of ascitic PLA2 activity” value (PLA2 [4])?
Its value is “did not inhibit”.

And the “sensitivity of exosome-associated PLA2 activity to inhibitor” value (PLA2 [4])?
Its value is “proved sensitive”.

What does the source list for `COc1ccc(Cl)cc1C(=O)NCCc1ccc(S(=O)(=O)NC(=O)NC2CCCCC2)cc1` [glyburide]?
migration of SKOV3 cells to CM from inhibitor-treated macrophages (SKOV3 cells [8]): did not stimulate migration; order of effectiveness in reducing PLA2 activity of CM [6]: MK571>glyburide>CsA; effect on PLA2 activity of CM [6]: dose-responsively reduced

For `CCCCCCCCCCCCCCCCOC[C@@H](O)COP(=O)([O-])OCC[N+](C)(C)C` [lyso-PAF, lyso-platelet activating factor], which stimulation of invasion (SKOV3 cells [9]) is on record?
The stimulation of invasion was “did not stimulate”.

And the stimulation of migration (SKOV3 cells [3])?
Its stimulation of migration is “did not stimulate”.

With `CCCCCCCC/C=C\CCCCCCCC(=O)O` [oleic acid] as the compound, how does the stimulation of invasion (SKOV3 cells [9]) read?
Its stimulation of invasion is “did not stimulate”.

What about the stimulation of migration (SKOV3 cells [3]) of the same compound?
The stimulation of migration was “did not stimulate”.

What does the source list for Lysophosphatidylinositol [LPI]?
stimulation of invasion (SKOV3 cells [9]): did not stimulate; stimulation of migration (SKOV3 cells [3]): did not stimulate

Which “order of effectiveness in reducing PLA2 activity of CM” value [6] does the source give for cyclosporine A [CsA] here?
Its value is “MK571>glyburide>CsA”.

What about the “effect on PLA2 activity of CM” value [6] of the same compound?
The value was “dose-responsively reduced”.

For lysophosphatidylcholine [LPC], which “stimulation of EOC cell migration” value (EOC cells [10]) is on record?
The value was “does not stimulate”.

For methyl-β-cyclodextrin [MBC], which “effect on PLA2 activity detected in CM” value [6] is on record?
The value was “Neither inhibitor had any significant effect”.
